Results reported in ChEMBL document CHEMBL1130808, “Prediction of the GTPase activities by using the semiempirical molecular orbital theory” (Bioorg Med Chem Lett, 1998).

Experiment: Effect on rate of GTP hydrolysis in the GTP binding protein ras p21

krel	Compound
1.02	CC(C)[C@H](N)C(=O)O
1.04	C[C@H](N)C(=O)O
0.98	CCC[C@H](N)C(=O)O

Compound	krel
CNC[C@H](N)C(=O)O	1
